Like-named read-outs stand apart in the source and are kept apart here.
System: GRMD plasma proteins
Assay type: in vivo, dog
[1] = Post-Treatment to GRMD baseline, Increased in GRMD

## O=c1ccc(-c2cnc(OCC(F)(F)F)nc2)nn1Cc1cncc(F)c1 [EDG-5506]
[1]
  Change from GRMD Baseline (fraction): Tyrosine-protein phosphatase non-receptor type 11 (PTPN11): -0.1671 fraction
  Change from GRMD Baseline (fraction): UMP-CMP kinase (CMPK1): 0.3595 fraction
  Change from GRMD Baseline (fraction): Ubiquitin carboxyl-terminal hydrolase 25 (USP25): 0.0097 fraction
  Change from GRMD Baseline (fraction): Ubiquitin carboxyl-terminal hydrolase isozyme L1 (UCHL1): 0.0043 fraction
  Change from GRMD Baseline (fraction): Ubiquitin-fold modifier 1 (UFM1): -0.1676 fraction
  Change from GRMD Baseline (fraction): Vascular cell adhesion protein 1 (VCAM1): -0.0398 fraction
  Change from GRMD Baseline (fraction): Vitamin K-dependent protein C (PROC): 0.0209 fraction
  Change from GRMD Baseline (fraction): Vitronectin (VTN): -0.1254 fraction
  Change from GRMD Baseline (fraction): cAMP-dependent protein kinase catalytic subunit alpha (PRKACA): -0.3909 fraction
  Change from GRMD Baseline (fraction): dCTP pyrophosphatase 1 (DCTPP1): -0.286 fraction
  Chitotriosidase-1 (CHIT1): Change from GRMD Baseline (fraction): 0.0322 fraction
  Chorionic somatomammotropin hormone (CSH1 CSH2): Change from GRMD Baseline (fraction): -0.0339 fraction
  Chromobox protein homolog 5 (CBX5): Change from GRMD Baseline (fraction): 0.2228 fraction
  Coagulation Factor X (F10): Change from GRMD Baseline (fraction): 0.1794 fraction
  Coagulation factor IX (F9): Change from GRMD Baseline (fraction): 0.0608 fraction
  Complement component 1 Q subcomponent-binding protein, mitochondrial (C1QBP): Change from GRMD Baseline (fraction): 0.0901 fraction
  Connective tissue growth factor (CTGF): Change from GRMD Baseline (fraction): -0.0093 fraction
  Cyclin-dependent kinase 1:G2/mitotic-specific cyclin-B1 complex (CDC2 CCNB1): Change from GRMD Baseline (fraction): 0.0208 fraction
  Cyclin-dependent kinase 5:Cyclin-dependent kinase 5 activator 1 complex (CDK5 CDK5R1): Change from GRMD Baseline (fraction): 0.0687 fraction
  Cytokine receptor-like factor 1:Cardiotrophin-like cytokine factor 1 Complex (CRLF1 CLCF1): Change from GRMD Baseline (fraction): 0.0138 fraction
  Dual 3',5'-cyclic-AMP and -GMP phosphodiesterase 11A (PDE11A): Change from GRMD Baseline (fraction): 0.0321 fraction
  Ectodysplasin-A, secreted form (EDA): Change from GRMD Baseline (fraction): 0.0092 fraction
  Endothelial cell-selective adhesion molecule (ESAM): Change from GRMD Baseline (fraction): -0.0069 fraction
  Endothelial monocyte-activating polypeptide 2 (AIMP1): Change from GRMD Baseline (fraction): -0.0021 fraction
  Extracellular superoxide dismutase [Cu-Zn] (SOD3): Change from GRMD Baseline (fraction): 0.0677 fraction
  Ficolin-2 (FCN2): Change from GRMD Baseline (fraction): 0.0082 fraction
  Fms-related tyrosine kinase 3 ligand (FLT3LG): Change from GRMD Baseline (fraction): 0.0399 fraction
  Galactoside 3(4)-L-fucosyltransferase (FUT3): Change from GRMD Baseline (fraction): 0.1128 fraction
  Galectin-10 (CLC): Change from GRMD Baseline (fraction): 0.0216 fraction
  Glial fibrillary acidic protein (GFAP): Change from GRMD Baseline (fraction): -0.0254 fraction
  Glycylpeptide N-tetradecanoyltransferase 1 (NMT1): Change from GRMD Baseline (fraction): 0.0839 fraction
  Group 10 secretory phospholipase A2 (PLA2G10): Change from GRMD Baseline (fraction): 0.0518 fraction
  Growth hormone receptor (GHR): Change from GRMD Baseline (fraction): 0.0479 fraction
  Growth-regulated alpha protein (CXCL1): Change from GRMD Baseline (fraction): -0.0445 fraction
  Growth/differentiation factor 15 (GDF15): Change from GRMD Baseline (fraction): -0.0019 fraction
  Hepatocyte growth factor (HGF): Change from GRMD Baseline (fraction): 0.0007 fraction
  Hepcidin (HAMP): Change from GRMD Baseline (fraction): -0.0103 fraction
  Immunoglobulin M (IGHM IGJ IGK@ IGL@): Change from GRMD Baseline (fraction): 0.0023 fraction
  Importin subunit alpha-1 (KPNA2): Change from GRMD Baseline (fraction): -0.1696 fraction
  Induced myeloid leukemia cell differentiation protein Mcl-1 (MCL1): Change from GRMD Baseline (fraction): -0.1236 fraction
  Inorganic pyrophosphatase (PPA1): Change from GRMD Baseline (fraction): -0.0163 fraction
  Insulin-like growth factor-binding protein 7 (IGFBP7): Change from GRMD Baseline (fraction): 0.064 fraction
  Integrin alpha-IIb: beta-3 complex (ITGA2B ITGB3): Change from GRMD Baseline (fraction): 0.0053 fraction
  Interleukin-4 (IL4): Change from GRMD Baseline (fraction): -0.0251 fraction
  Interleukin-6 receptor subunit beta (IL6ST): Change from GRMD Baseline (fraction): 0.06 fraction
  Interleukin-8 (CXCL8): Change from GRMD Baseline (fraction): -0.0291 fraction
  Interleukin-10 receptor subunit beta (IL10RB): Change from GRMD Baseline (fraction): -0.0324 fraction
  Interleukin-17 receptor C (IL17RC): Change from GRMD Baseline (fraction): -0.0159 fraction
  Interleukin-18 receptor accessory protein (IL18RAP): Change from GRMD Baseline (fraction): -0.0292 fraction
  Interleukin-27 (IL27 EBI3): Change from GRMD Baseline (fraction): -0.0149 fraction
  Interleukin-36 beta (IL36B): Change from GRMD Baseline (fraction): 0.0098 fraction
  Killer cell immunoglobulin-like receptor 3DS1 (KIR3DS1): Change from GRMD Baseline (fraction): 0.1583 fraction
  Killer cell lectin-like receptor subfamily F member 1 (KLRF1): Change from GRMD Baseline (fraction): 0.2014 fraction
  Lamin-B1 (LMNB1): Change from GRMD Baseline (fraction): -0.0238 fraction
  Laminin (LAMA1 LAMB1 LAMC1): Change from GRMD Baseline (fraction): 0.0548 fraction
  Low-density lipoprotein receptor-related protein 1B (LRP1B): Change from GRMD Baseline (fraction): -0.0345 fraction
  Macrophage-stimulating protein receptor (MST1R): Change from GRMD Baseline (fraction): 0.0197 fraction
  Matrilin-3 (MATN3): Change from GRMD Baseline (fraction): -0.0333 fraction
  Matrilysin (MMP7): Change from GRMD Baseline (fraction): -0.0041 fraction
  N-terminal pro-BNP (NPPB): Change from GRMD Baseline (fraction): -0.0202 fraction
  NKG2D ligand 3 (ULBP3): Change from GRMD Baseline (fraction): 0.0123 fraction
  Neural cell adhesion molecule L1-like protein (CHL1): Change from GRMD Baseline (fraction): -0.0412 fraction
  Neurexophilin-1 (NXPH1): Change from GRMD Baseline (fraction): 0.3842 fraction
  OX-2 membrane glycoprotein (CD200): Change from GRMD Baseline (fraction): 0.1164 fraction
  Persephin (PSPN): Change from GRMD Baseline (fraction): -0.0043 fraction
  Phosphatidylinositol 4,5-bisphosphate 3-kinase catalytic subunit gamma isoform (PIK3CG): Change from GRMD Baseline (fraction): 0.0292 fraction
  Pituitary adenylate cyclase-activating polypeptide 27 (ADCYAP1): Change from GRMD Baseline (fraction): 0.0483 fraction
  Platelet factor 4 (PF4): Change from GRMD Baseline (fraction): 0.0577 fraction
  Platelet glycoprotein VI (GP6): Change from GRMD Baseline (fraction): 0.0535 fraction
  Prolactin (PRL): Change from GRMD Baseline (fraction): -0.0256 fraction
  Prolactin receptor (PRLR): Change from GRMD Baseline (fraction): 0.085 fraction
  Proteasome subunit alpha type-6 (PSMA6): Change from GRMD Baseline (fraction): 0.0724 fraction
  Protein E7_HPV18 (Human-virus): Change from GRMD Baseline (fraction): 0.0128 fraction
  Proto-oncogene tyrosine-protein kinase receptor Ret (RET): Change from GRMD Baseline (fraction): 0.0043 fraction
  RNA-binding protein 39 (RBM39): Change from GRMD Baseline (fraction): -0.1347 fraction
  Ras GTPase-activating protein 1 (RASA1): Change from GRMD Baseline (fraction): -0.0705 fraction
  Ribosome maturation protein SBDS (SBDS): Change from GRMD Baseline (fraction): 0.0714 fraction
  SPARC-related modular calcium-binding protein 1 (SMOC1): Change from GRMD Baseline (fraction): -0.0726 fraction
  Secreted and transmembrane protein 1 (SECTM1): Change from GRMD Baseline (fraction): -0.1238 fraction
  Serine/threonine-protein kinase PAK 3 (PAK3): Change from GRMD Baseline (fraction): 0.077 fraction
  Serine/threonine-protein kinase PAK 7 (PAK7): Change from GRMD Baseline (fraction): -0.0176 fraction
  Serine/threonine-protein kinase pim-1 (PIM1): Change from GRMD Baseline (fraction): 0.0551 fraction
  Serum amyloid A-1 protein (SAA1): Change from GRMD Baseline (fraction): -0.1642 fraction
  Sialic acid-binding Ig-like lectin 7 (SIGLEC7): Change from GRMD Baseline (fraction): -0.0123 fraction
  Small ubiquitin-related modifier 3 (SUMO3): Change from GRMD Baseline (fraction): -0.0342 fraction
  Stromelysin-1 (MMP3): Change from GRMD Baseline (fraction): 0.0381 fraction
  Stromelysin-2 (MMP10): Change from GRMD Baseline (fraction): -0.0469 fraction
  Synaptosomal-associated protein 25 (SNAP25): Change from GRMD Baseline (fraction): 0.0227 fraction
  T-cell surface glycoprotein CD4 (CD4): Change from GRMD Baseline (fraction): 0.004 fraction
  T-lymphocyte activation antigen CD86 (CD86): Change from GRMD Baseline (fraction): 0.0642 fraction
  TATA-box-binding protein (TBP): Change from GRMD Baseline (fraction): -0.0819 fraction
  Thyroxine-binding globulin (SERPINA7): Change from GRMD Baseline (fraction): -0.0761 fraction
  Transcription factor IIIB 90 kDa subunit (BRF1): Change from GRMD Baseline (fraction): 0.0702 fraction
  Tumor necrosis factor ligand superfamily member 18 (TNFSF18): Change from GRMD Baseline (fraction): 0.0235 fraction
  Tumor necrosis factor receptor superfamily member 13B (TNFRSF13B): Change from GRMD Baseline (fraction): -0.0295 fraction
  Tumor necrosis factor receptor superfamily member 13C (TNFRSF13C): Change from GRMD Baseline (fraction): -0.0266 fraction
  Tumor-associated calcium signal transducer 2 (TACSTD2): Change from GRMD Baseline (fraction): -0.0008 fraction
  Ubiquitin-conjugating enzyme E2 G2 (UBE2G2): Change from GRMD Baseline (fraction): -0.0144 fraction
  WNT1-inducible-signaling pathway protein 1 (WISP1): Change from GRMD Baseline (fraction): 0.0281 fraction
  WNT1-inducible-signaling pathway protein 3 (WISP3): Change from GRMD Baseline (fraction): 0.0371 fraction
  alpha-2-macroglobulin receptor-associated protein (LRPAP1): Change from GRMD Baseline (fraction): -0.0289 fraction
  cGMP-dependent 3',5'-cyclic phosphodiesterase (PDE2A): Change from GRMD Baseline (fraction): 0.1206 fraction
Protein deglycase DJ-1 (PARK7), EDG-5506 treatment to GRMD baseline
  Change from GRMD Baseline (fraction): 0.1853 fraction
Protein deglycase DJ-1 (PARK7), Post-Treatment to GRMD baseline
  Change from GRMD Baseline (fraction): -0.0618 fraction
Proto-oncogene vav (VAV1), EDG-5506 treatment to GRMD baseline
  Change from GRMD Baseline (fraction): 0.0609 fraction
Proto-oncogene vav (VAV1), Post-Treatment to GRMD baseline
  Change from GRMD Baseline (fraction): 0.2228 fraction
SH2 domain-containing protein 1A (SH2D1A), EDG-5506 treatment to GRMD baseline
  Change from GRMD Baseline (fraction): 0.0272 fraction
SH2 domain-containing protein 1A (SH2D1A), Post-Treatment to GRMD baseline
  Change from GRMD Baseline (fraction): 0.0814 fraction
Serine/threonine-protein kinase TBK1 (TBK1), EDG-5506 treatment to GRMD baseline
  Change from GRMD Baseline (fraction): 0.0144 fraction
Serine/threonine-protein kinase TBK1 (TBK1), Post-Treatment to GRMD baseline
  Change from GRMD Baseline (fraction): 0.0415 fraction
Sialic acid-binding Ig-like lectin 14 (SIGLEC14), EDG-5506 treatment to GRMD baseline
  Change from GRMD Baseline (fraction): 0.0643 fraction
Sialic acid-binding Ig-like lectin 14 (SIGLEC14), Post-Treatment to GRMD baseline
  Change from GRMD Baseline (fraction): -0.0249 fraction
Sorting nexin-4 (SNX4), EDG-5506 treatment to GRMD baseline
  Change from GRMD Baseline (fraction): -0.0709 fraction
Sorting nexin-4 (SNX4), Post-Treatment to GRMD baseline
  Change from GRMD Baseline (fraction): 0.088 fraction
Thrombin (F2), EDG-5506 treatment to GRMD baseline
  Change from GRMD Baseline (fraction): 0.2436 fraction
Thrombin (F2), Post-Treatment to GRMD baseline
  Change from GRMD Baseline (fraction): 0.0387 fraction
Transgelin-2 (TAGLN2), EDG-5506 treatment to GRMD baseline
  Change from GRMD Baseline (fraction): 0.1205 fraction
Transgelin-2 (TAGLN2), Post-Treatment to GRMD baseline
  Change from GRMD Baseline (fraction): -0.0633 fraction
WAP, kazal, immunoglobulin, kunitz and NTR domain-containing protein 1 (WFIKKN1), EDG-5506 treatment to GRMD baseline
  Change from GRMD Baseline (fraction): 0.1609 fraction
WAP, kazal, immunoglobulin, kunitz and NTR domain-containing protein 1 (WFIKKN1), Post-Treatment to GRMD baseline
  Change from GRMD Baseline (fraction): -0.0946 fraction
